The text below walks through data of patent US20170313674A1, “BENZYLHYDROXIDE DERIVATIVES, PREPARATION THEREOF AND THERAPEUTIC USE THEREOF” (SANOFI, priority 2014, published 2017).

Where two headings read alike, the source gives them in different places.

Assay [1] concerns mitochondrial ATP production on non-small cell lung carcinoma cell lines NCI-H460. Nature of the assay: Mitochondrial ATP analysis (Cell Titer Glo) in NCI-H460 cells. The class given is cell-based. The settings on record: 1-hour incubation, with sodium iodoacetate (100 μM), concentration inhibiting 50% of mitochondrial ATP production, read-out: IC50 (mito ATP). The procedure:
In order to evaluate the inhibitory activity of the all compounds, an in vitro assay was developed which read out is directly linked to mitochondrial complex 1 inhibition. Since mitochondrial complex 1 contributes to the formation of membrane potential coupled to the mitochondrial ATP synthesis, complex 1 inhibition directly leads in cells to the inhibition of mitochondrial ATP production. Cellular ATP contents were measured in presence of either glycolysis inhibitor (sodium iodocetate) and/or mitochondrial inhibitors (F0F1-ATPase inhibitor: oligomycin or mitochondrial uncoupler: FCCP) to determine the ATP production part relying either on glycolytic or on mitochondrial metabolism.
Mitochondrial ATP Analysis
The compounds of the invention were evaluated for their ability to inhibit mitochondrial
ATP was measured using the Promega Cell Titer Glo kit and protocol. In summary, 1,000 cells were plated in 40 μL in a 384 well plate. 24 hours later, medium was replaced by 20 μl culture medium in presence of compounds: cells were treated in replicates of five with control (PBS), oligomycin A (10 μg/ml), FCCP (30 μM), or the compounds of the invention in dose effect both alone or in combination with sodium iodoacetate (100 μM). Following a 1-hour incubation, 20 μL of CellTtiter-glo™ reaction mix were added to each well for a final volume of 40 μL. Plates were then analyzed for luminescence with a Perkin Elmer EnVision. By comparing the different conditions, global ATP and percentages of both glycolytic and mitochondrial ATP were determined.
The mitochondrial ATP production was calculated as the remaining ATP under iodoacetate treatment minus basal ATP (ATP content under iodoacetate and oligomycin treatment). Inhibitory activity of the compounds on mitochondrial ATP in NCI-H460 cells is expressed as the concentration needed to inhibit 50% of mitochondrial ATP production (IC50, M).
For orientation: Cellular ATP, detected with luciferase, serves as a proxy for viable cell number.

In the next assay the test system is HIF-1a. Nature of the assay: Western blot model: HIF1-a stabilization in Hep3b cells under hypoxia. Type of assay: cell-based. The settings on record: hypoxia 1% O2, 6 hours; for Western Blot (range of decrease of HIF1-a stabilization): class symbol. The protocol:
Since it was sought to determine the efficacy of the compounds to inhibit HIF1a stabilization under hypoxia, the compounds according to the invention underwent biochemical studies in order to determine their capacity to decrease HIF stabilization in Hep3b cells under hypoxia (western blot model).
Hep3B cells are seeded at a rate of 300000 cells per well in 6-wells culture plate in 2 ml of MEM supplemented with glutamin (2 mM) and 10% FCS (foetal calf serum) and incubated at 37° C. in the presence of 5% CO2. The next day, the cells are placed in contact with the compound and an incubation under hypoxia at 1% O2 is carried out at 37° C. in 95% humidity and 5% CO2 in a sealed anaerobic workstation (Hypoxystation H35-Don Whitley—AES Chemunex) during 6 hours.
Cells were washed (PBS) and lysed in SDS sample buffer. Proteins (25 μg) were separated on 4-12% Bis-Tris gels and transferred onto polyvinylidene difluoride membranes (Millipore). Membranes were blotted with a mouse monoclonal antibody to HIF-1a (BD transduction) and a mouse monoclonal anti-βactin (Sigma). Immunoreactive bands were detected with a horse radish peroxydase (HRP) anti-mouse antibody (Sigma) by enhanced chemiluminescence (Promega).
The inhibitory activity of the compounds for their capacity to decrease HIF1-a stabilization in Hep3b under hypoxia is expressed as range of percentage relative to control with: […]

In general, IC50 refers to the concentration that gives 50% inhibition. For `COc1ccc(C(O)COc2ccc(-c3csc(-c4ccc(OCC(O)c5ccc(OC)c(OC)c5)cc4)n3)cc2)cc1OC` (single isomer, unassigned) [Compound I-24, 1-(3,4-dimethoxyphenyl)-2-[4-[2-[4-[2-(3,4-dimethoxyphenyl)-2-hydroxy-ethoxy]phenyl]thiazol-4-yl]phenoxy]ethanol], in assay [1], the IC50 came out at 254 nM. Also, in the assay on HIF-1a, the “Western Blot (decrease of HIF1-a stabilization, percentage relative to control)” value is given as 49% and the “Western Blot (range of decrease of HIF1-a stabilization)” value is “* (* represents a decrease of HIF-a stabilization between 30 to 50%)”.
Consider `COc1ccc(C(O)C(C)(C)Oc2ccc(-c3nc(-c4ccc(OC(C)(C)C(O)c5ccc(OC)c(OC)c5)cc4)c(C)s3)cc2)cc1OC` (stereo not shown) [Compound I-6, 1-(3,4-dimethoxyphenyl)-2-[4-[2-[4-[2-(3,4-dimethoxyphenyl)-2-hydroxy-1,1-dimethyl-ethoxy]phenyl]-5-methyl-thiazol-4-yl]phenoxy]-2-methyl-propan-1-ol], for which the IC50 in assay [1] (Homo sapiens, NCI-H460, 1 h) was 21.3 nM. Besides, in the assay with HIF-1a, the “Western Blot (decrease of HIF1-a stabilization, percentage relative to control)” value is recorded as 43% and the “Western Blot (range of decrease of HIF1-a stabilization)” value was “* (* represents a decrease of HIF-a stabilization between 30 to 50%)”.
Take `COc1ccc(C(O)COc2ccc(-c3csc(-c4ccc(OCC(O)c5ccc(OC)c(OC)c5)cc4)n3)cc2)cc1OC` (single isomer, unassigned) [Compound I-61, 1-(3,4-dimethoxyphenyl)-2-[4-[2-[4-[2-(3,4-dimethoxyphenyl)-2-hydroxy-ethoxy]phenyl]thiazol-4-yl]phenoxy]ethanol]: the half-inhibitory concentration (IC50) in assay [1] stood at 326 nM. In the assay with HIF-1a, the “Western Blot (decrease of HIF1-a stabilization, percentage relative to control)” value turned out to be 46% and the “Western Blot (range of decrease of HIF1-a stabilization)” value was “* (* represents a decrease of HIF-a stabilization between 30 to 50%)”.
On to `COc1ccc(C(O)COc2ccc(-c3nc(-c4ccc(OCC(O)c5ccc(OC)c(OC)c5)cc4)c(C)o3)cc2)cc1OC` (stereo not shown) [Compound I-1, 1-(3,4-dimethoxyphenyl)-2-[4-[2-[4-[2-(3,4-dimethoxyphenyl)-2-hydroxy-ethoxy]phenyl]-5-methyl-oxazol-4-yl]phenoxy]ethanol], for which the half-maximal inhibitory concentration (IC50) in assay [1] (Homo sapiens, NCI-H460, 1 h) is 353 nM. In the assay with HIF-1a, the “Western Blot (decrease of HIF1-a stabilization, percentage relative to control)” value stood at 48% and the “Western Blot (range of decrease of HIF1-a stabilization)” value is “* (* represents a decrease of HIF-a stabilization between 30 to 50%)”.
On to `COc1cc(C(O)COc2ccc(-c3coc(-c4ccc(OCC(O)c5cc(OC)c(OC)c(OC)c5)cc4)n3)cc2)cc(OC)c1OC` (single isomer, unassigned) [Compound I-22, 2-[4-[2-[4-[2-hydroxy-2-(3,4,5-trimethoxyphenyl)ethoxy]phenyl]oxazol-4-yl]phenoxy]-1-(3,4,5-trimethoxyphenyl)ethanol], for which, in assay [1], the IC50 came to 1280 nM. For the same molecule, in the assay on HIF-1a, the “Western Blot (decrease of HIF1-a stabilization, percentage relative to control)” value is given as 57% and the “Western Blot (range of decrease of HIF1-a stabilization)” value is listed as “** (** represents a decrease of HIF-a stabilization between 50 to 70%)”.
With `COc1cc(C(O)COc2ccc(-c3coc(-c4ccc(OCC(O)c5ccc(Cl)c(OC)c5)cc4)n3)cc2)ccc1Cl` (stereo not shown) [Compound I-15, 1-(4-chloro-3-methoxy-phenyl)-2-[4-[2-[4-[2-(4-chloro-3-methoxy-phenyl)-2-hydroxy-ethoxy]phenyl]oxazol-4-yl]phenoxy]ethanol], in assay [1] (Homo sapiens, NCI-H460, 1 h), the IC50 is 1550 nM.
Consider `COc1cc(C(O)COc2ccc(-c3csc(-c4ccc(OCC(O)c5ccc(OC(F)F)c(OC)c5)cc4)n3)cc2)ccc1OC(F)F` (single isomer, unassigned) [Compound I-52, 1-[4-(difluoromethoxy)-3-methoxy-phenyl]-2-[4-[2-[4-[2-[4-(difluoromethoxy)-3-methoxy-phenyl]-2-hydroxy-ethoxy]phenyl]thiazol-4-yl]phenoxy]ethanol], for which the 50% inhibitory concentration (IC50) in assay [1] was greater than 10000 nM.
As for `COc1cc(C(O)COc2ccc(-c3csc(-c4ccc(OCC(O)c5ccc(OC(F)F)c(OC)c5)cc4)n3)cc2)ccc1OC(F)F` (single isomer, unassigned) [Compound I-51, 1-[4-(difluoromethoxy)-3-methoxy-phenyl]-2-[4-[2-[4-[2-[4-(difluoromethoxy)-3-methoxy-phenyl]-2-hydroxy-ethoxy]phenyl]thiazol-4-yl]phenoxy]ethanol], in assay [1] (Homo sapiens, NCI-H460, 1 h), the IC50 is greater than 10000 nM.
Same read-out and setting: under `COc1ccc(C(O)COc2ccc(-c3nsc(-c4ccc(OCC(O)c5ccc(OC)c(OC)c5)cc4)n3)cc2)cc1OC` (single isomer, unassigned) [Compound I-40, 1-(3,4-dimethoxyphenyl)-2-[4-[5-[4-[2-(3,4-dimethoxyphenyl)-2-hydroxy-ethoxy]phenyl]-1,2,4-thiadiazol-3-yl]phenoxy]ethanol] stands 281 nM; under `COc1ccc(C(O)C(C)(C)Oc2ccc(-c3cn(CCN4CCOCC4)c(-c4ccc(OC(C)(C)C(O)c5ccc(OC)c(OC)c5)cc4)n3)cc2)cc1OC` (stereo not shown) [Compound I-59, 1-(3,4-dimethoxyphenyl)-2-[4-[2-[4-[2-(3,4-dimethoxyphenyl)-2-hydroxy-1,1-dimethyl-ethoxy]phenyl]-1-(2-morpholinoethyl)imidazo1-4-yl]phenoxy]-2-methyl-propan-1-ol], 2750 nM; under `COc1ccc(C(O)COc2ccc(-c3coc(-c4ccc(OCC(O)c5ccc(OC)c(F)c5)cc4)n3)cc2)cc1F` (stereo not shown) [Compound I-17, 1-(3-fluoro-4-methoxy-phenyl)-2-[4-[2-[4-[2-(3-fluoro-4-methoxy-phenyl)-2-hydroxy-ethoxy]phenyl]oxazol-4-yl]phenoxy]ethanol], 3960 nM.
As for `COc1ccc(C(O)COc2ccc(-c3csc(-c4ccc(OCC(O)c5ccc(OC)c(OC)c5)cc4)n3)cc2)cc1OC` (single isomer, unassigned) [Compound I-23, 1-(3,4-dimethoxyphenyl)-2-[4-[2-[4-[2-(3,4-dimethoxyphenyl)-2-hydroxy-ethoxy]phenyl]thiazol-4-yl]phenoxy]ethanol], the concentration for half-maximal inhibition (IC50) in assay [1] amounted to 197 nM.
Take `COc1ccc(C(O)COc2ccc(-c3c[nH]c(-c4ccc(OCC(O)c5ccc(OC)c(OC)c5)cc4)n3)cc2)cc1OC` (stereo not shown) [Compound I-53, 1-(3,4-dimethoxyphenyl)-2-[4-[2-[4-[2-(3,4-dimethoxyphenyl)-2-hydroxy-ethoxy]phenyl]-1H-imidazol-4-yl]phenoxy]ethanol]: the IC50 in assay [1] (Homo sapiens, NCI-H460, 1 h) stood at 956 nM.
As to `COc1ccc(C(O)COc2ccc(-c3nc(C)c(-c4ccc(OCC(O)c5ccc(OC)c(OC)c5)cc4)o3)cc2)cc1OC` (single isomer, unassigned) [Compound I-5, 1-(3,4-dimethoxyphenyl)-2-[4-[2-[4-[2-(3,4-dimethoxyphenyl)-2-hydroxy-ethoxy]phenyl]-4-methyl-oxazol-5-yl]phenoxy]ethanol], the IC50 in assay [1] worked out at 8270 nM.
For the molecule `COc1ccc(C(O)COc2ccc(-c3csc(-c4ccc(OCC(O)c5ccc(OC)c(OC(F)F)c5)cc4)n3)cc2)cc1OC(F)F` (single isomer, unassigned) [Compound I-49, 1-[3-(difluoromethoxy)-4-methoxy-phenyl]-2-[4-[2-[4-[2-[3-(difluoromethoxy)-4-methoxy-phenyl]-2-hydroxy-ethoxy]phenyl]thiazol-4-yl]phenoxy]ethanol], the concentration for half-maximal inhibition (IC50) in assay [1] is greater than 10000 nM.
